Reference: PubChem BioAssay (NCI)
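Following 48 hours of exposure in 96-well plates, responses at five concentrations were used to interpolate endpoints linearly. At the GI50, growth is halved. TGI marks complete inhibition of growth.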

Columns and labels:
Experiment in all cases: NCI tumour cell line growth inhibition, 48 h
CAKI-1 renal = test system: CAKI-1 renal
UACC-257 melanoma = test system: UACC-257 melanoma
OVCAR-5 ovarian = test system: OVCAR-5 ovarian
TK-10 renal = test system: TK-10 renal
T-47D breast = test system: T-47D breast
SK-MEL-5 melanoma = test system: SK-MEL-5 melanoma
HT29 colon = test system: HT29 colon
SNB-75 CNS = test system: SNB-75 CNS
OVCAR-8 ovarian = test system: OVCAR-8 ovarian
SR leukemia = test system: SR leukemia
EKVX NSCLC = test system: EKVX NSCLC
MOLT-4 leukemia = test system: MOLT-4 leukemia
M14 melanoma = test system: M14 melanoma
OVCAR-3 ovarian = test system: OVCAR-3 ovarian
SK-MEL-2 melanoma = test system: SK-MEL-2 melanoma
HOP-92 NSCLC = test system: HOP-92 NSCLC
MDA-MB-435 = test system: MDA-MB-435
SF-539 CNS = test system: SF-539 CNS
IGROV1 ovarian = test system: IGROV1 ovarian
HCT-116 colon = test system: HCT-116 colon
BT-549 breast = test system: BT-549 breast
LOX IMVI melanoma = test system: LOX IMVI melanoma
MALME-3M melanoma = test system: MALME-3M melanoma
RXF 393 renal = test system: RXF 393 renal
MCF7 breast = test system: MCF7 breast
A498 renal = test system: A498 renal
NCI-H23 lung = test system: NCI-H23 lung
SF-295 CNS = test system: SF-295 CNS
SNB-19 CNS = test system: SNB-19 CNS
OVCAR-4 ovarian = test system: OVCAR-4 ovarian
SK-MEL-28 melanoma = test system: SK-MEL-28 melanoma
CCRF-CEM leukemia = test system: CCRF-CEM leukemia
KM12 colon = test system: KM12 colon
SW-620 colon = test system: SW-620 colon
DU-145 prostate = test system: DU-145 prostate
HOP-62 NSCLC = test system: HOP-62 NSCLC
RPMI-8226 leukemia = test system: RPMI-8226 leukemia
SF-268 CNS = test system: SF-268 CNS
COLO 205 colon = test system: COLO 205 colon
UO-31 renal = test system: UO-31 renal
U251 CNS = test system: U251 CNS
786-0 renal = test system: 786-0 renal
NCI-H226 lung = test system: NCI-H226 lung
NCI-H460 lung = test system: NCI-H460 lung
A549 NSCLC = test system: A549 NSCLC
HCC-2998 colon = test system: HCC-2998 colon
UACC-62 melanoma = test system: UACC-62 melanoma
HCT-15 colon = test system: HCT-15 colon
HS 578T breast = test system: HS 578T breast
ACHN renal = test system: ACHN renal
SK-OV-3 ovarian = test system: SK-OV-3 ovarian
SN12C renal = test system: SN12C renal
NCI-H522 lung = test system: NCI-H522 lung
K-562 leukemia = test system: K-562 leukemia

`COC(=O)c1c2c(c(C)[n+]([O-])c1C)C(=O)C(NCc1ccccc1)=CC2=O` gave a GI50 (CAKI-1 renal) of 2.84 µM, a TGI (CAKI-1 renal) of 14.3 µM and a GI50 (UACC-257 melanoma) of 1.7 µM. For the same compound, the TGI (UACC-257 melanoma) was 4.02 µM, the GI50 (OVCAR-5 ovarian) was 2.58 µM and the TGI (OVCAR-5 ovarian) was 6.22 µM. For the same compound, the GI50 (TK-10 renal) was 4.48 µM, the TGI (TK-10 renal) was 18.7 µM and the GI50 (T-47D breast) was 1.88 µM. The TGI (T-47D breast) was 5.35 µM, the GI50 (SK-MEL-5 melanoma) was 1.23 µM and the TGI (SK-MEL-5 melanoma) was 2.5 µM. It also gave a GI50 (HT29 colon) of 1.97 µM, a TGI (HT29 colon) of 10.2 µM and a GI50 (SNB-75 CNS) of 3.62 µM. For the same compound, the TGI (SNB-75 CNS) was 13.9 µM, the GI50 (OVCAR-8 ovarian) was 2.32 µM and the TGI (OVCAR-8 ovarian) was 8.73 µM. The GI50 (SR leukemia) was 3 µM, the TGI (SR leukemia) was 31.4 µM and the GI50 (EKVX NSCLC) was 2.09 µM. It also gave a TGI (EKVX NSCLC) of 5.41 µM, a GI50 (MOLT-4 leukemia) of 2.21 µM and a TGI (MOLT-4 leukemia) of 5.6 µM. It also gave a GI50 (M14 melanoma) of 1.97 µM, a TGI (M14 melanoma) of 4.35 µM and a GI50 (OVCAR-3 ovarian) of 0.613 µM. For the same compound, the TGI (OVCAR-3 ovarian) was 3.67 µM, the GI50 (SK-MEL-2 melanoma) was 2.63 µM and the TGI (SK-MEL-2 melanoma) was 9.48 µM. For the same compound, the GI50 (HOP-92 NSCLC) was 2.8 µM, the TGI (HOP-92 NSCLC) was 6.61 µM and the GI50 (MDA-MB-435) was 1.81 µM. For the same compound, the TGI (MDA-MB-435) was 3.3 µM, the GI50 (SF-539 CNS) was 2.29 µM and the TGI (SF-539 CNS) was 5.3 µM. For the same compound, the GI50 (IGROV1 ovarian) was 1.71 µM, the TGI (IGROV1 ovarian) was 4.42 µM and the GI50 (HCT-116 colon) was 2.47 µM. The TGI (HCT-116 colon) was 9.48 µM, the GI50 (BT-549 breast) was 4.19 µM and the TGI (BT-549 breast) was 16 µM. The GI50 (LOX IMVI melanoma) was 2.72 µM, the TGI (LOX IMVI melanoma) was 10.2 µM and the GI50 (MALME-3M melanoma) was 0.617 µM. For the same compound, the TGI (MALME-3M melanoma) was 1.88 µM, the GI50 (RXF 393 renal) was 2.48 µM and the TGI (RXF 393 renal) was 7.88 µM. It also gave a GI50 (MCF7 breast) of 1.65 µM, a TGI (MCF7 breast) of 3.73 µM and a GI50 (A498 renal) of 4.72 µM. The TGI (A498 renal) was 16.1 µM, the GI50 (NCI-H23 lung) was 2.03 µM and the TGI (NCI-H23 lung) was 6.09 µM. The GI50 (SF-295 CNS) was 2.6 µM, the TGI (SF-295 CNS) was 7.5 µM and the GI50 (SNB-19 CNS) was 3.25 µM. For the same compound, the TGI (SNB-19 CNS) was 11.2 µM, the GI50 (OVCAR-4 ovarian) was 1.13 µM and the TGI (OVCAR-4 ovarian) was 2.4 µM. It also gave a GI50 (SK-MEL-28 melanoma) of 4.63 µM, a TGI (SK-MEL-28 melanoma) of 22.2 µM and a GI50 (CCRF-CEM leukemia) of 2.98 µM. It also gave a TGI (CCRF-CEM leukemia) of 22.3 µM, a GI50 (KM12 colon) of 2.4 µM and a TGI (KM12 colon) of 9.6 µM. The GI50 (SW-620 colon) was 3.12 µM, the TGI (SW-620 colon) was 10.6 µM and the GI50 (DU-145 prostate) was 3.5 µM. It also gave a TGI (DU-145 prostate) of 11.2 µM, a GI50 (HOP-62 NSCLC) of 3.1 µM and a TGI (HOP-62 NSCLC) of 17.9 µM. The GI50 (RPMI-8226 leukemia) was 2.61 µM, the TGI (RPMI-8226 leukemia) was 10.1 µM and the GI50 (SF-268 CNS) was 2.81 µM. For the same compound, the TGI (SF-268 CNS) was 9.69 µM, the GI50 (COLO 205 colon) was 0.977 µM and the TGI (COLO 205 colon) was 2.67 µM. For the same compound, the GI50 (UO-31 renal) was 2.9 µM, the TGI (UO-31 renal) was 10.1 µM and the GI50 (U251 CNS) was 2.46 µM. For the same compound, the TGI (U251 CNS) was 7.11 µM, the GI50 (786-0 renal) was 3.68 µM and the TGI (786-0 renal) was 23.7 µM. The GI50 (NCI-H226 lung) was 2.81 µM, the TGI (NCI-H226 lung) was 9.9 µM and the GI50 (NCI-H460 lung) was 2.74 µM. It also gave a TGI (NCI-H460 lung) of 10.9 µM, a GI50 (A549 NSCLC) of 2.47 µM and a TGI (A549 NSCLC) of 7.94 µM. For the same compound, the GI50 (HCC-2998 colon) was 2.8 µM, the TGI (HCC-2998 colon) was 7.98 µM and the GI50 (UACC-62 melanoma) was 1.8 µM. For the same compound, the TGI (UACC-62 melanoma) was 3.56 µM, the GI50 (HCT-15 colon) was 1.7 µM and the TGI (HCT-15 colon) was 4.44 µM. The GI50 (HS 578T breast) was 7 µM, the TGI (HS 578T breast) was 82.4 µM and the GI50 (ACHN renal) was 2.73 µM. The TGI (ACHN renal) was 10.1 µM, the GI50 (SK-OV-3 ovarian) was 2.81 µM and the TGI (SK-OV-3 ovarian) was 9.63 µM. It also gave a GI50 (SN12C renal) of 2.13 µM, a TGI (SN12C renal) of 5.48 µM and a GI50 (NCI-H522 lung) of 2.45 µM. The TGI (NCI-H522 lung) was 7.62 µM, the GI50 (K-562 leukemia) was 2.94 µM and the TGI (K-562 leukemia) was 16.3 µM.
